Assay results as given in PMC8897147 (Acta Pharmaceutica Sinica. B, 2021).

Assays:
Conditions in all cases: COS-7
[1] = target: T1, CLR/RAMP3 (Homo sapiens, UniProt O60896+Q16602); assay: β-Arrestin2 recruitment
[2] = target: T1, CLR/RAMP3; assay: β-Arrestin1 recruitment
[3] = target: CLR (Homo sapiens, UniProt Q16602); assay: cAMP accumulation
Sequence of CLR (Q16602 23-461): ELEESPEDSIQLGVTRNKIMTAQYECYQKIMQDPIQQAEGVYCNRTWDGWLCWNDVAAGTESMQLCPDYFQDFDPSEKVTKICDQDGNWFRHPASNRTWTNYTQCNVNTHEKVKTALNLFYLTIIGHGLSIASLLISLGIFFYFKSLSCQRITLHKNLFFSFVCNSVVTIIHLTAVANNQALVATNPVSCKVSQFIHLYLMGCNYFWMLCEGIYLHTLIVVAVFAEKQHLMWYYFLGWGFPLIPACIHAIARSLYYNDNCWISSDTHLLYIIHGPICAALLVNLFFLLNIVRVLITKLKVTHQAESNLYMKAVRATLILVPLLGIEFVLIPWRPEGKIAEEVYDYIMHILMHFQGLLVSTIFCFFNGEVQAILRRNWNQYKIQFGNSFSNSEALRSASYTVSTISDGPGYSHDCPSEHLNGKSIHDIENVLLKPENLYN

T1 sequence (Q16602 23-461): as above
T1 sequence (O60896 24-148): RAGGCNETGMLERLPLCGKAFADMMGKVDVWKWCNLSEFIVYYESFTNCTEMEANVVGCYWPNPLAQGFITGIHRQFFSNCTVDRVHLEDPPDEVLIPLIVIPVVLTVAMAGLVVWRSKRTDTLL

Compound `CC[C@H](C)[C@H](NC(=O)[C@H](CCC(N)=O)NC(=O)[C@H](Cc1c[nH]cn1)NC(=O)[C@H](C)NC(=O)[C@H](CC(C)C)NC(=O)[C@H](CCCCN)NC(=O)[C@H](CCC(N)=O)NC(=O)[C@@H](NC(=O)[C@@H](NC(=O)[C@@H]1CSSC[C@H](NC(=O)CNC(=O)[C@H](Cc2ccccc2)NC(=O)[C@H](CO)NC(=O)[C@H](CCCNC(=N)N)NC(=O)[C@H](CC(C)C)NC(=O)CNC(=O)[C@H](CCC(N)=O)NC(=O)[C@H](Cc2ccccc2)NC(=O)[C@H](CC(N)=O)NC(=O)[C@H](CC(N)=O)NC(=O)[C@H](CCSC)NC(=O)[C@H](CO)NC(=O)[C@H](CCC(N)=O)NC(=O)[C@H](CCCNC(=N)N)NC(=O)[C@@H](N)Cc2ccc(O)cc2)C(=O)N[C@@H](CCCNC(=N)N)C(=O)N[C@@H](Cc2ccccc2)C(=O)NCC(=O)N[C@@H]([C@@H](C)O)C(=O)N1)[C@@H](C)O)C(C)C)C(=O)N[C@@H](Cc1ccc(O)cc1)C(=O)N[C@@H](CCC(N)=O)C(=O)N[C@@H](Cc1ccccc1)C(=O)N[C@H](C(=O)N[C@@H](CC(=O)O)C(=O)N[C@@H](CCCCN)C(=O)N[C@@H](CC(=O)O)C(=O)N[C@@H](CCCCN)C(=O)N[C@@H](CC(=O)O)C(=O)N[C@@H](CC(N)=O)C(=O)N[C@H](C(=O)N[C@@H](C)C(=O)N1CCC[C@H]1C(=O)N[C@@H](CCCNC(=N)N)C(=O)N[C@@H](CO)C(=O)N[C@@H](CCCCN)C(=O)N[C@H](C(=O)N[C@@H](CO)C(=O)N1CCC[C@H]1C(=O)N[C@@H](CCC(N)=O)C(=O)NCC(=O)N[C@@H](Cc1ccc(O)cc1)C(N)=O)[C@@H](C)CC)C(C)C)[C@@H](C)O` [Adrenomedullin, adrenomedullin] has an Emax [1] of 58.4 ± 10.9%, an Emax [2] of 17.9 ± 11.7% and an Emax [3] of 46.3 ± 2.9%.
